Source: PMC8597724, “Kanglemycin A Can Overcome Rifamycin Resistance Caused by ADP-Ribosylation by Arr Protein” (Antimicrobial Agents and Chemotherapy, 2021)

Biological target: T1, ArrMab (Mycobacteroides abscessus, UniProt B1MH05)
T1 construct: gene MAB_0591; N-terminal 6xHis tag (pET28), expressed in E. coli T7 Express; RED-NHS amine-labelled for MST
Assay: microscale thermophoresis
Type: binding
Source text: microscale thermophoresis on ArrMab | ArrMab bound both antibiotics with the same Kd

T1 sequence (B1MH05 entry or part of it): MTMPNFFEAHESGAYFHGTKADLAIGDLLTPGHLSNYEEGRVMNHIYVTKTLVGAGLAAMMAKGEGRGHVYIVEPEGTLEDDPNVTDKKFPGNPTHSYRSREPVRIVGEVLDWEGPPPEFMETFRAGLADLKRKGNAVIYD

CO[C@H]1/C=C/O[C@@]2(C)Oc3c(C)c(O)c4c(O)c(c(/C=N/N5CCN(C)CC5)c(O)c4c3C2=O)NC(=O)/C(C)=C\C=C\[C@H](C)[C@H](O)[C@@H](C)[C@@H](O)[C@@H](C)[C@H](OC(C)=O)[C@@H]1C [rifampicin]
Kd: 27.9 µM
